What was measured:
Assay type in all cases: in vivo
[1] = system: cucumber powdery mildew fungus (Sphaerotheca fuliginea, a QoI-resistant strain, cytochrome b position 143 glycine to alanine); test: Cucumber powdery mildew control test, foliage spray on cucumber; conditions: Test Example 6, 500 ppm foliage spray, cucumber (SAGAMI HANJIRO), 8 days after inoculation
[2] = system: barley net blotch fungus (Pyrenophora teres); test: Barley net blotch control test, foliage spray on barley; conditions: barley (MIKAMO GOLDEN), inoculated 2 days after spraying
Protocol: (§1) The control effect was evaluated by visually observing the area of lesion spots on each of test plants at the time of investigation, and comparing the area of lesion spots on a plant treated with the present control agent with that on an untreated plant. The untreated plant is a plant tested under the same conditions as in Test Examples, except that foliage application of a diluted solution of a formulation containing the present compound with water is not performed.
Each of plastic pots was filled with sandy loam and barley (cultivar: MIKAMO GOLDEN) was sowed and grown in a greenhouse for 7 days. Each of the present compounds 1 to 8, 10 to 12, and 14 was diluted with water to adjust to a predetermined concentration of 500 ppm. The obtained diluted solution was sprayed over stems and leaves of the barley so that it sufficiently adhered to the surface of the leaves of the barley. After spraying, the plant was air-dried. After 2 days, an aqueous suspension containing spores of barley net blotch fungus (Pyrenophora teres) was sprayed to inoculate the spores. After completion of the inoculation, the plant was left to stand for 3 days in a greenhouse at 23° C. in the daytime and 20° C. at night under high humidity condition and cultivated in a greenhouse for 7 days, and then the area of lesion spots was investigated. […]

[3] = system: wheat rust fungus (Puccinia recondita); test: Wheat rust control test, foliage spray on wheat; conditions: Test Example 8; 200 ppm foliage spray; wheat (SHIROGANE); inoculated 5 days after spraying
Protocol: as §1
Each of plastic pots was filled with sandy loam and wheat (cultivar: SHIROGANE) was sowed and grown in a greenhouse for 9 days. Each of the present compounds 1 to 5, 11, and 1 was diluted with water to adjust to a predetermined concentration of 500 ppm. The obtained diluted solution was sprayed over stems and leaves of the wheat so that they sufficiently adhered to the surface of the leaves of the wheat. After spraying, the plant was air-dried and cultivated at 20° C. for 5 days under illumination, and then inoculated by sprinkling with spores of wheat rust fungus (Puccinia recondita). After the inoculation, the plant was left to stand at 23° C. for one day under dark and high humidity condition, and cultivated under illumination at 20° C. for 8 days, and then the area of lesion spots was investigated. […]

[4] = system: rice blast fungus (Magnaporthe grisea); conditions: Test Example 7; 200 ppm foliage spray; rice (NIHONBARE); 6 days in contact with infected seedlings
[5] = system: wheat leaf blotch fungus (Septoria tritici); test: Wheat leaf blotch control test, foliage spray on wheat; conditions: Test Example 11; 200 ppm foliage spray; wheat (APOGEE); inoculated 4 days after spraying

COc1cc(-c2cc(C)c(OCc3ccccc3-n3nnn(C)c3=O)cc2C)nn1C [compound 14]
≤ 30%: area of lesion spots on treated plant relative to untreated plant [1] | area of lesion spots on treated plant relative to untreated plant ([2]; Test Example 3, 500 ppm foliage spray) | area of lesion spots on treated plant relative to untreated plant ([2]; Test Example 9, 200 ppm foliage spray) | area of lesion spots on treated plant relative to untreated plant [3] | lesion area on treated plant with respect to the lesion area on the non-treated plant [4]

COc1c(C(F)F)c(-c2ccc(OCc3ccccc3-n3nnn(C)c3=O)c(C)c2)nn1C [compound 9]
≤ 30%: area of lesion spots on treated plant relative to untreated plant [5]
